# Where “and” joins values, the source holds several entries; their conditions need not be identical. Identical values can stand only once.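 Compound exposure: 48 hours, 5 concentrations, 96-well plates. GI50 = concentration required for 50% inhibition of growth. At the TGI there is no net growth.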
# Experiments:
# Assay in all cases: NCI-60 cell line screen, 48 h
# RPMI-8226 leukemia = test system: RPMI-8226 leukemia
# CCRF-CEM leukemia = test system: CCRF-CEM leukemia
# ACHN renal = test system: ACHN renal
# HS 578T breast = test system: HS 578T breast
# SK-MEL-28 melanoma = test system: SK-MEL-28 melanoma
# UACC-257 melanoma = test system: UACC-257 melanoma
# EKVX NSCLC = test system: EKVX NSCLC
# MALME-3M melanoma = test system: MALME-3M melanoma
# K-562 leukemia = test system: K-562 leukemia
# SK-OV-3 ovarian = test system: SK-OV-3 ovarian
# NCI-H226 lung = test system: NCI-H226 lung
# COLO 205 colon = test system: COLO 205 colon
# DU-145 prostate = test system: DU-145 prostate
# SK-MEL-5 melanoma = test system: SK-MEL-5 melanoma
# BT-549 breast = test system: BT-549 breast
# HT29 colon = test system: HT29 colon
# OVCAR-5 ovarian = test system: OVCAR-5 ovarian
# HOP-62 NSCLC = test system: HOP-62 NSCLC
# NCI-H23 lung = test system: NCI-H23 lung
# SF-268 CNS = test system: SF-268 CNS
# HCT-15 colon = test system: HCT-15 colon
# UO-31 renal = test system: UO-31 renal
# OVCAR-8 ovarian = test system: OVCAR-8 ovarian
# RXF 393 renal = test system: RXF 393 renal
# MOLT-4 leukemia = test system: MOLT-4 leukemia
# HOP-92 NSCLC = test system: HOP-92 NSCLC
# MDA-MB-435 = test system: MDA-MB-435
# UACC-62 melanoma = test system: UACC-62 melanoma
# 786-0 renal = test system: 786-0 renal
# NCI-H522 lung = test system: NCI-H522 lung
# A498 renal = test system: A498 renal
# IGROV1 ovarian = test system: IGROV1 ovarian
# HCC-2998 colon = test system: HCC-2998 colon
# MDA-MB-231 breast = test system: MDA-MB-231 breast
# CAKI-1 renal = test system: CAKI-1 renal
# SR leukemia = test system: SR leukemia
# LOX IMVI melanoma = test system: LOX IMVI melanoma
# T-47D breast = test system: T-47D breast
# M14 melanoma = test system: M14 melanoma
# SNB-75 CNS = test system: SNB-75 CNS
# OVCAR-4 ovarian = test system: OVCAR-4 ovarian
# SW-620 colon = test system: SW-620 colon
# U251 CNS = test system: U251 CNS
# SNB-19 CNS = test system: SNB-19 CNS
# SF-539 CNS = test system: SF-539 CNS
# SN12C renal = test system: SN12C renal
# PC-3 prostate = test system: PC-3 prostate
# A549 NSCLC = test system: A549 NSCLC
# SF-295 CNS = test system: SF-295 CNS
# TK-10 renal = test system: TK-10 renal
# NCI/ADR-RES ovarian = test system: NCI/ADR-RES ovarian
# KM12 colon = test system: KM12 colon
# NCI-H460 lung = test system: NCI-H460 lung
# MCF7 breast = test system: MCF7 breast
# SK-MEL-2 melanoma = test system: SK-MEL-2 melanoma
# HCT-116 colon = test system: HCT-116 colon
# OVCAR-3 ovarian = test system: OVCAR-3 ovarian
# HL-60(TB) leukemia = test system: HL-60(TB) leukemia
compound,measurement,setting,value
NC1CCC(Nc2nc(NCc3ccc(-c4ccco4)nc3)c3ncn(C4CCCC4)c3n2)CC1 (stereo not given),GI50,RPMI-8226 leukemia,11.9 nM
same,TGI,RPMI-8226 leukemia,89.5 nM
same,GI50,CCRF-CEM leukemia,36.2 nM
same,TGI,CCRF-CEM leukemia,1880 nM
same,GI50,ACHN renal,242 nM
same,GI50,HS 578T breast,20.5 nM
same,TGI,HS 578T breast,95.5 nM and 347 nM
same,GI50,SK-MEL-28 melanoma,22.7 nM
same,TGI,SK-MEL-28 melanoma,68.6 nM
same,GI50,UACC-257 melanoma,27.7 nM
same,TGI,UACC-257 melanoma,88 nM
same,GI50,EKVX NSCLC,46.5 nM
same,TGI,EKVX NSCLC,538 nM and 242 nM
same,GI50,MALME-3M melanoma,35 nM
same,TGI,MALME-3M melanoma,212 nM
same,GI50,K-562 leukemia,41.7 nM
same,TGI,K-562 leukemia,1170 nM
same,GI50,SK-OV-3 ovarian,49 nM
same,TGI,SK-OV-3 ovarian,15600 nM
same,GI50,NCI-H226 lung,126 nM
same,GI50,COLO 205 colon,14.3 nM
same,TGI,COLO 205 colon,31.4 nM
same,GI50,DU-145 prostate,42.6 nM
same,TGI,DU-145 prostate,12200 nM
same,GI50,SK-MEL-5 melanoma,91.3 nM
same,TGI,SK-MEL-5 melanoma,1020 nM
same,GI50,BT-549 breast,26.4 nM
same,TGI,BT-549 breast,74.6 nM
same,GI50,HT29 colon,8.01 nM
same,GI50,OVCAR-5 ovarian,32.4 nM
same,TGI,OVCAR-5 ovarian,14100 nM
same,GI50,HOP-62 NSCLC,23.8 nM
same,TGI,HOP-62 NSCLC,80.6 nM
same,GI50,NCI-H23 lung,26.4 nM
same,TGI,NCI-H23 lung,95.3 nM
same,GI50,SF-268 CNS,11 nM
same,TGI,SF-268 CNS,169 nM and 1300 nM
same,GI50,HCT-15 colon,298 nM and 1270 nM
same,TGI,HCT-15 colon,7810 nM
same,GI50,UO-31 renal,170 nM
same,TGI,UO-31 renal,747 nM
same,GI50,OVCAR-8 ovarian,43.1 nM
same,GI50,RXF 393 renal,17.9 nM
same,TGI,RXF 393 renal,40 nM
same,GI50,MOLT-4 leukemia,22.2 nM
same,GI50,HOP-92 NSCLC,27.5 nM
same,TGI,HOP-92 NSCLC,80.3 nM
same,GI50,MDA-MB-435,22.5 nM
same,TGI,MDA-MB-435,1240 nM
same,GI50,UACC-62 melanoma,37.7 nM
same,TGI,UACC-62 melanoma,223 nM
same,GI50,786-0 renal,73.2 nM
same,TGI,786-0 renal,1800 nM
same,GI50,NCI-H522 lung,16.4 nM
same,TGI,NCI-H522 lung,73.7 nM
same,GI50,A498 renal,31.1 nM
same,TGI,A498 renal,94.1 nM
same,GI50,IGROV1 ovarian,35.1 nM
same,TGI,IGROV1 ovarian,10700 nM
same,GI50,HCC-2998 colon,31.6 nM
same,TGI,HCC-2998 colon,627 nM
same,GI50,MDA-MB-231 breast,13.7 nM
same,GI50,CAKI-1 renal,2860 nM
same,TGI,CAKI-1 renal,12600 nM
same,GI50,SR leukemia,34.9 nM
same,TGI,SR leukemia,190 nM
same,TGI,LOX IMVI melanoma,21900 nM
same,GI50,T-47D breast,24.9 nM
same,GI50,M14 melanoma,21.3 nM
same,TGI,M14 melanoma,193 nM
same,GI50,SNB-75 CNS,10.1 nM
same,TGI,SNB-75 CNS,29.9 nM
same,GI50,OVCAR-4 ovarian,30.7 nM
same,GI50,SW-620 colon,11.7 nM
same,TGI,SW-620 colon,11500 nM
same,GI50,U251 CNS,34.4 nM
same,TGI,U251 CNS,12600 nM
same,GI50,SNB-19 CNS,27.5 nM
same,TGI,SNB-19 CNS,12500 nM
same,GI50,SF-539 CNS,37.9 nM
same,TGI,SF-539 CNS,204 nM
same,GI50,SN12C renal,37.1 nM
same,TGI,SN12C renal,11600 nM
same,GI50,PC-3 prostate,30.7 nM
same,TGI,PC-3 prostate,206 nM and 1690 nM
same,GI50,A549 NSCLC,27.3 nM
same,TGI,A549 NSCLC,14400 nM
same,GI50,SF-295 CNS,75.1 nM
same,GI50,TK-10 renal,160 nM
same,TGI,TK-10 renal,12800 nM
same,TGI,NCI/ADR-RES ovarian,1390 nM
same,GI50,KM12 colon,10.7 nM
same,TGI,KM12 colon,86 nM
same,GI50,NCI-H460 lung,46.9 nM
same,TGI,NCI-H460 lung,11300 nM
same,GI50,MCF7 breast,26.7 nM
same,TGI,MCF7 breast,1220 nM
same,GI50,SK-MEL-2 melanoma,34 nM
same,TGI,SK-MEL-2 melanoma,145 nM
same,GI50,HCT-116 colon,32.4 nM
same,TGI,HCT-116 colon,11100 nM
same,GI50,OVCAR-3 ovarian,27.3 nM
same,TGI,OVCAR-3 ovarian,77.8 nM
same,GI50,HL-60(TB) leukemia,19.3 nM
same,TGI,HL-60(TB) leukemia,72.9 nM
